The source of these data is paper PMC4231056, “Dihydroflavonol 4-Reductase Genes Encode Enzymes with Contrasting Substrate Specificity and Show Divergent Gene Expression Profiles in Fragaria Species” (PLoS ONE, 2014).

In general, Km refers to the concentration of substrate that gives half-maximal velocity.

Data set [1] concerns the target T1, DFR1s (recombinant, F. vesca) (Fragaria vesca, UniProt A0A0A0PTI9).
T1 construct: gene DFR; full-length ORF, 333 residues; expressed in yeast from pYES vector; not purified; result stated for all clones together
T1 sequence (A0A0A0PTI9 1-333): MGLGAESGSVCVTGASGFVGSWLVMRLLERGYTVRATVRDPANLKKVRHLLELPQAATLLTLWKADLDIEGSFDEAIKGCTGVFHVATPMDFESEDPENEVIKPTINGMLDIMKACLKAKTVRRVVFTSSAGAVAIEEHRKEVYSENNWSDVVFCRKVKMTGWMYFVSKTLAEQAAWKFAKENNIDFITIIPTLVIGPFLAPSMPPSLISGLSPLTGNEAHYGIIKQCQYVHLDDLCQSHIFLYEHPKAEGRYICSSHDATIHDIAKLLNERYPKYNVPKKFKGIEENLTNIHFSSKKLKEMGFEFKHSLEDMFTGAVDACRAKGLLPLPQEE
Nature of the data set: radiolabelled turnover assay, yeast protein preparation. The format is biochemical. Particulars: NADPH; labelled compound (14C).

Data set [2] concerns the target T2, DFR2s (recombinant, F. vesca) (Fragaria vesca, UniProt A0A0A0PVL5).
T2 construct: gene DFR; full-length ORF, 349 residues; expressed in yeast from pYES vector; not purified; result stated for all clones together
T2 sequence (A0A0A0PVL5 1-349): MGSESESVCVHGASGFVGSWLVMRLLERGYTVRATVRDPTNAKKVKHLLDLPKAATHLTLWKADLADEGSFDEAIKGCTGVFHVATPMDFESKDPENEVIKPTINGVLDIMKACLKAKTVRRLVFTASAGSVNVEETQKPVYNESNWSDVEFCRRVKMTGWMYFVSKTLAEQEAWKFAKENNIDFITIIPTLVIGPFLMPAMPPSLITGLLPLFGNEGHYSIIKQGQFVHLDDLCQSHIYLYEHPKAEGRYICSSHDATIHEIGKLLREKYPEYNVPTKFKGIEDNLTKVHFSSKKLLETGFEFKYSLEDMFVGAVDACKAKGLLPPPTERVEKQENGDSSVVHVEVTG
Described as above. It is filed as biochemical. To be noted: NADPH; labelled compound (14C).

Substrate in data set [3]: O=C1c2c(O)cc(O)cc2O[C@H](c2ccc(O)cc2)[C@H]1O
Nature of the data set: radiolabelled TLC assay, Lineweaver-Burk, yeast protein preparation. It is filed as biochemical, Fragaria x ananassa. To be noted: NADPH; optimised conditions (pH optimum 6.00); labelled compound (14C); K cat is per kg protein, a specific rate. The source says:
radiolabelled TLC assay, Lineweaver-Burk, yeast protein preparation on DFR1 (recombinant, KC894048)

Substrate in data set [4]: O=C1c2c(O)cc(O)cc2O[C@H](c2ccc(O)c(O)c2)[C@H]1O
The data set is described as above. It is filed as biochemical, Fragaria x ananassa. To be noted: NADPH; optimised conditions (pH optimum 6.25); labelled compound (14C); K cat is per kg protein, a specific rate. The source says:
(§1) radiolabelled TLC assay, Lineweaver-Burk, yeast protein preparation on DFR2 (recombinant, KC894055)

Substrate in data set [5]: O=C1c2c(O)cc(O)cc2O[C@H](c2cc(O)c(O)c(O)c2)[C@H]1O
The description is as above. It is filed as biochemical, Fragaria x ananassa. Particulars: NADPH; optimised conditions (pH optimum 5.75); labelled compound (14C); K cat is per kg protein, a specific rate.
Source text: as §1

As for `O=C1c2c(O)cc(O)cc2O[C@H](c2ccc(O)cc2)[C@H]1O` [DHK], in data set [1], the “radiolabelled turnover assay, yeast protein preparation” value (“radiolabelled turnover assay” for short) is reported as “Recombinant DFR1 s, in contrast, were selective for DHK”. Regarding `O=C1c2c(O)cc(O)cc2O[C@H](c2cc(O)c(O)c(O)c2)[C@H]1O` [DHM], the “radiolabelled turnover assay” value in data set [2] is “The recombinant DFR2s converted DHQ and DHM to leucocyanidin and leucodelphinidin”. As to `O=C1c2c(O)cc(O)cc2O[C@H](c2ccc(O)c(O)c2)[C@H]1O` [DHQ], the “radiolabelled turnover assay” value in data set [2] was “The recombinant DFR2s converted DHQ and DHM to leucocyanidin and leucodelphinidin”.

B1: DFR1 (recombinant, KC894048) (Fragaria x ananassa) (protein)
chain: MGLGAESGSVCVTGASGFVGSWLVMRLLEHGYTVRATVRDPANLKKVRHLLELPQAATRLTLWKADLDVEGSFDEAIKGCTGVFHVATPMDFESEDPENEVIKPTINGMLDIMKACLKAKTVRRVVFTSSAGAVAIEEHRKEVYSENNWSDVVFCRKVKMTGWMYFVSKTLAEQAAWKFAKENNIDFITIIPTLVIGPFLAPSMPPSLISGLSPLTGNEAHYGIIKQCQYVHLDDLCQSHIFLYEHPKAEGRYICSSHDATIHDIAKLLNEKYPKYNVPKKFKGIEENLTNIHFSSKKLKEMGFEFKHSLEDMFTGAVDACREKGLLPLPQEEETEKRRAG
notes: full-length ORF, 341 residues; expressed in yeast INVSc1 from pYES2.1/V5-His-TOPO; reverse primer starts with the stop codon; cell protein preparation, not purified
As for B1, in data set [3], the Michaelis constant (Km) was found to be 0.40 µM.

B2: DFR2 (recombinant, KC894055) (Fragaria x ananassa) (protein)
chain: MGSESESVCVTGASGFVGSWLVMRLLERGYTVRATVRDPTNAKKVKHLLDLPKAATHLTLWKADLADEGSFDEAIKGCSGVFHVATPMDFESKDPENEVIKPTINGVLDIMKACLKAKTVRRLVFTASAGSVNVEETQKPVYNESNWSDVEFCRRVKMTGWMYFVSKTLAEQEAWKFAKENNIDFITIIPTLVIGPFLMPAMPPSLITGLSPLFGNEGHYSIIKQGQFVHLDDLCQSHIYLYEHPKAEGRYICSSHDATIHEIAKLLREKYPEYNVPTKFKGIEDNLTKVHFSSKKLLETGFEFKYSLEDMFVGAVDACKAKGLLPPPTERVEKQEAGDSGVVHVEVTG
notes: full-length ORF, 349 residues; expressed in yeast INVSc1 from pYES2.1/V5-His-TOPO; reverse primer holds the stop codon; cell protein preparation, not purified
Consider B2, for which the results for the Km in data set [4] and in data set [5] were 0.40 µM and 2.3 µM, respectively.
